The values that follow are results of earlier work, collected in patent publication US11083748B2 (priority 2003, dated 2021).

The structures appear in SMILES notation.

Data set [1] relates to patients. The settings on record: human, in vivo.
For data set [2] the following is noted: in vivo, iv.

Regarding `CC(C)(S)[C@@H](N)C(=O)O` [Penicillamine, beta,beta-dimethylcysteine], the solubility in water result is “freely soluble”.

Take `O=C(O)C(S)C(S)C(=O)O` (stereo not shown) [Succimer, dimercaptosuccinic acid]: the “patients with drug-induced elevations of liver transaminases (mild and transient)” value in data set [1] is given as “up to 10%”.

Take `O=C(O)CN(CCN(CC(=O)O)CC(=O)O)CC(=O)O` [EDTA, ethylenediamine tetraacetic acid]: in data set [2], the “fraction of the drug remaining one hour following administration” value is “one-half” and the half-life (commonly the time needed for the level to fall by half in the phase considered) is 20 to 60 min.
